Assay results published in patent US20250339566A1, “INHIBITORS OF FIBROBLAST ACTIVATION PROTEIN” (UNIVERSITEIT ANTWERPEN, priority 2022, published 2025).
Where two headings read alike, the source gives them in different places.

Assays:
Assay type in all cases: biochemical
human FAP = molecular target: T1, human FAP (Homo sapiens, UniProt Q12884); assay: FAP IC50 measurement (Z-Gly-Pro-AMC); details: Z-Gly-Pro-AMC 50 μM, pH 8, 15 min pre-incubation
T1 construct: the human secretion signal was replaced with the HoneyBee mellitin secretion signal; honeybee melittin secretion signal (replaces the native signal) (N); made in house; host or cells: Sf9 insect cells (baculovirus), purified from supernatant
T1 sequence (Q12884 26-760 limits assumed): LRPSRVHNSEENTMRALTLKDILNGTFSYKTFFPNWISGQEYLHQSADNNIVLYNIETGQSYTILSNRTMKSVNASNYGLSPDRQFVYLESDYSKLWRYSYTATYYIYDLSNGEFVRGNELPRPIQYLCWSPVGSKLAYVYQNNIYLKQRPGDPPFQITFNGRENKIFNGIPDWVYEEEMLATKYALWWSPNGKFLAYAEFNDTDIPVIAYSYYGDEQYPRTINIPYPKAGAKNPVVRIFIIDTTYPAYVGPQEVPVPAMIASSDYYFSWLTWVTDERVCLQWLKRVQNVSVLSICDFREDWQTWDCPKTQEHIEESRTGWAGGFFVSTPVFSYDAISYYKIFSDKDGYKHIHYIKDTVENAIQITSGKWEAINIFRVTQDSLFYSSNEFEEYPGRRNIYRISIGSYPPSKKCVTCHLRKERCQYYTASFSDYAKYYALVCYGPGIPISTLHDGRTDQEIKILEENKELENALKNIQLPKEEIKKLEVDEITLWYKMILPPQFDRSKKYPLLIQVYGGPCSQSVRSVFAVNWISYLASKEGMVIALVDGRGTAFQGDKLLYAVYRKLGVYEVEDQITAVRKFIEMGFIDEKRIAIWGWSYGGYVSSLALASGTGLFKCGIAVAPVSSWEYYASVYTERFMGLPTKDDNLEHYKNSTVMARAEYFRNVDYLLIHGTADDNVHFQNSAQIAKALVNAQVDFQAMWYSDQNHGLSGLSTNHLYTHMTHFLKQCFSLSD
Description: (§1) Used Enzymes in these Assays: • A gateway-entry clone for human FAP was purchased from Dharmacon (Accession number DQ891423) and the human secretion signal was replaced with the HoneyBee mellitin secretion signal. For transfection and expression of FAP in Sf9 insect cells the C-terminal BaculoDirect kit from LifeTechnologies was used. The enzyme was purified from the supernatant of the insect cells using immobilized Ni-chelating chromatography (GE healthcare, Diegem, Belgium), followed by anion-exchange chromatography using a 1 mL HiTrap Q and size exclusion chromatography using the Superdex 200 column (GE healthcare, Diegem, Belgium). • Human recombinant PREP was expressed in BL21(DE3) cells and purified using immobilized Co-chelating chromatography (GE healthcare), followed by anion-exchange chromatography on a 1 ml Mono Q column (GE healthcare). • DPP4 was purified from human seminal plasma. • Gateway-entry clones for human DPP8 and DPP9 were purchased from Dharmacon (Accession numbers DQ891733 and DQ892325 respectively). For transfection and expression of DPP8 and DPP9 in Sf9 insect cells the N-terminal BaculoDirect kit from LifeTechnologies was used. The enzymes were purified using immobilized Ni-chelating chromatography (GE healthcare, Diegem, Belgium), followed by anion-exchange chromatography using a 1 mL Mono Q (GE healthcare, Diegem, Belgium). • Recombinant human DPP2 was purchased from R&D.
(§2) Eight concentrations of inhibitors/probe were tested. The final DMSO concentration was kept constant during the experiment to exclude any effects. Inhibitors were pre-incubated with the enzyme for 15 minutes at 37° C., afterwards the substrate was added and the velocities of AMC release were measured kinetically at λex=380 nm, λem=465 nm for at least 10 minutes at 37° C. […] Eight concentrations of inhibitors were tested. The final DMSO concentration in kept constant during the experiment to exclude any effects. Inhibitors were pre-incubated with the enzyme for 15 minutes at 37° C., afterwards the substrate was added and the velocities of AMC release were measured kinetically at λex=380 nm, λem=465 nm for at least 10 minutes at 37° C. […] At least eight different inhibitor concentrations were used. The final DMSO concentration is kept constant during the experiment to exclude any effects. Inhibitors were pre-incubated with the enzyme for 15 minutes at 37° C., afterwards the substrate was added and the velocities of pNA release were measured kinetically at 405 nm for at least 10 minutes at 37° C. Measurements were done on the Infinite 200 (Tecan Group Ltd.) and the Magellan software was used to process the data. • For DPP2: Initial velocity measurements were carried out. Lys-Ala-pNA was used as the substrate at a concentration of 1 mM at pH 5.5 (100 mM NaAc, 10 mM EDTA, 14 μg/mL aprotinin). Inhibitors were tested at one concentration, 5 μM, being the final concentration in the well. Inhibitors were pre-incubated with the enzyme for 15 minutes at 37° C., afterwards the substrate was added and the velocities of pNA release were measured kinetically at 405 nm for at least 10 minutes at 37° C. Measurements were done on the Infinite 200 (Tecan Group Ltd.) and the Magellan software was used to process the data.

Human recombinant PREP = molecular target: T2, Human recombinant PREP (Homo sapiens, UniProt P48147); assay: PREP IC50 measurement (N-succinyl-Gly-Pro-AMC); details: for Selectivity index PREP: IC50(PREP)/IC50(FAP); for IC50: N-succinyl-Gly-Pro-AMC 250 μM, pH 7.4
T2 construct: made in house; host or cells: E. coli BL21(DE3)
T2 sequence (P48147 1-710): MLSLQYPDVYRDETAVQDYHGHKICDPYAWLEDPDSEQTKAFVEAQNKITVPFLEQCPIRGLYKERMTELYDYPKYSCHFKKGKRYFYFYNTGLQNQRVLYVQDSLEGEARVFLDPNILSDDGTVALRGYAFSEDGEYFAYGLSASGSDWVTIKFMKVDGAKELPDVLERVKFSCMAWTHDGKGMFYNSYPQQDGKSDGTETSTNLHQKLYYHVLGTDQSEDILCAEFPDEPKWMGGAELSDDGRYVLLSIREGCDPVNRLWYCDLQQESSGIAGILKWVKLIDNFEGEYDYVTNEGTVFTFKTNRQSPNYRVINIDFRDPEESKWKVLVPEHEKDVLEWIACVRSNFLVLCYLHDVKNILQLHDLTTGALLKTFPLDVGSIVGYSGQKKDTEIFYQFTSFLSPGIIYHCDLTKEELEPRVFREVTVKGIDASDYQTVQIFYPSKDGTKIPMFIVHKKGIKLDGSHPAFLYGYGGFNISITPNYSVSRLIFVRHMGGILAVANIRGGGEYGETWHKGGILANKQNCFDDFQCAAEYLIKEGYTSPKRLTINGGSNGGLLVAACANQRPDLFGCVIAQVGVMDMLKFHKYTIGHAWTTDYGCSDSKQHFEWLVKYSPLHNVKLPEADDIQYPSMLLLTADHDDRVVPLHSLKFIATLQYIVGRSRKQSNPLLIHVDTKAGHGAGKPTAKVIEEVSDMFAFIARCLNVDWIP
Description: as §1, §2

DPP4 = molecular target: T3, DPP4 (Homo sapiens, UniProt P27487); assay: DPP4 IC50 measurement (Ala-Pro-pNA); details: for IC50: Ala-Pro-pNA 25 μM, pH 7.4; for Selectivity index DPP4: IC50(DPP4)/IC50(FAP)
T3 construct: DPP4 was purified from human seminal plasma; from tissue; host or cells: human seminal plasma
Description: as §1, §2

human DPP8 = molecular target: T4, human DPP8 (Homo sapiens, UniProt Q6V1X1); assay: DPP8 IC50 measurement (Ala-Pro-pNA); details: for IC50: read-out: DPP8 IC50; for Selectivity index DPP8: IC50(DPP8)/IC50(FAP)
T4 construct: made in house; host or cells: Sf9 insect cells (baculovirus)
Description: as §1, §2

human DPP9 = molecular target: T5, human DPP9 (Homo sapiens, UniProt Q86TI2); assay: DPP9 IC50 measurement (Ala-Pro-pNA); details: for IC50: Ala-Pro-pNA 150 μM, pH 7.4; for Selectivity index DPP9: IC50(DPP9)/IC50(FAP)
T5 construct: made in house; host or cells: Sf9 insect cells (baculovirus)
Description: as §1, §2

T4 sequence (Q6V1X1 whole entry): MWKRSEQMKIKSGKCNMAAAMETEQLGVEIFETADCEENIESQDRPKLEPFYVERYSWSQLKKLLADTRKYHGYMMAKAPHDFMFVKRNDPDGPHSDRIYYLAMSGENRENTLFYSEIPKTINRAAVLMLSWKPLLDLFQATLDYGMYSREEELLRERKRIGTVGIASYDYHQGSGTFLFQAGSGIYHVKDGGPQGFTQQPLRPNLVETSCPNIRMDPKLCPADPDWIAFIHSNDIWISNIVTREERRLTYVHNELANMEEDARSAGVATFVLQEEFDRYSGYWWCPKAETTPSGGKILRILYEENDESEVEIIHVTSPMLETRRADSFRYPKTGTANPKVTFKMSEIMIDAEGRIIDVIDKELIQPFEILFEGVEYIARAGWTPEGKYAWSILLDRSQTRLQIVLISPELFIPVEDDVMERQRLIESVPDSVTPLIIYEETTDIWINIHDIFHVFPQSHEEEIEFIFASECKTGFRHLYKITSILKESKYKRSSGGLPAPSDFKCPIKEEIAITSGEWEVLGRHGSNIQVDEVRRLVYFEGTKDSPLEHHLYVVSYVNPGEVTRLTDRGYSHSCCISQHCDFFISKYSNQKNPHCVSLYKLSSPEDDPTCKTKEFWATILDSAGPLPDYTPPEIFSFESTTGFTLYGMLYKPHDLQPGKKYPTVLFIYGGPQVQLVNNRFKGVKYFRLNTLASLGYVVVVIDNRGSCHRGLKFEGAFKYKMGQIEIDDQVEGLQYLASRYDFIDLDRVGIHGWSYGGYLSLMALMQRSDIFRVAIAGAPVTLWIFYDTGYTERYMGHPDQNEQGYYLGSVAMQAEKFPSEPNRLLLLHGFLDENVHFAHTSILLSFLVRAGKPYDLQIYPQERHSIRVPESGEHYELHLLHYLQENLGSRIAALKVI
T5 sequence (Q86TI2 whole entry): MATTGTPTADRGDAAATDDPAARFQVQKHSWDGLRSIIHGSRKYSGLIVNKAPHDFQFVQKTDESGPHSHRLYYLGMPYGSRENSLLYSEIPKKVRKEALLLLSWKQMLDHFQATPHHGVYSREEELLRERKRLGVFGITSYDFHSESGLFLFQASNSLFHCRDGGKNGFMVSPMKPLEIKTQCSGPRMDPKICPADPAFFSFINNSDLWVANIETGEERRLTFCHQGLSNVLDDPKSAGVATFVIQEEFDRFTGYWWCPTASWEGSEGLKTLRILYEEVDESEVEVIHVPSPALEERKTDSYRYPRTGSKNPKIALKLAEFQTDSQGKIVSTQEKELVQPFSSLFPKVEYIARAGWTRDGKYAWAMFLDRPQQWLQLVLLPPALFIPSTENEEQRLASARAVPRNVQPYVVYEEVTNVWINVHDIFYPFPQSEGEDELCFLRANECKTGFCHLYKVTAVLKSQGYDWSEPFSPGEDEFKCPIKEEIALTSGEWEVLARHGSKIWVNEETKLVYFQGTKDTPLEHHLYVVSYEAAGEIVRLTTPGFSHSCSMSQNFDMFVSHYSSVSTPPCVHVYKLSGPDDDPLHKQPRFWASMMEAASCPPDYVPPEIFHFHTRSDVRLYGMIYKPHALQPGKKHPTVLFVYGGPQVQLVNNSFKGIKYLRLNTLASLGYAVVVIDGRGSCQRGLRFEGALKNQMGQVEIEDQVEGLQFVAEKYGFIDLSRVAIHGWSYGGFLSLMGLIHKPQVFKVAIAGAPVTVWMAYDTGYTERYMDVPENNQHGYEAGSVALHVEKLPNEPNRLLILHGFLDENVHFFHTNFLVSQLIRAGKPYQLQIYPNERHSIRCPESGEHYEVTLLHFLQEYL
T3 sequence (P27487 whole entry): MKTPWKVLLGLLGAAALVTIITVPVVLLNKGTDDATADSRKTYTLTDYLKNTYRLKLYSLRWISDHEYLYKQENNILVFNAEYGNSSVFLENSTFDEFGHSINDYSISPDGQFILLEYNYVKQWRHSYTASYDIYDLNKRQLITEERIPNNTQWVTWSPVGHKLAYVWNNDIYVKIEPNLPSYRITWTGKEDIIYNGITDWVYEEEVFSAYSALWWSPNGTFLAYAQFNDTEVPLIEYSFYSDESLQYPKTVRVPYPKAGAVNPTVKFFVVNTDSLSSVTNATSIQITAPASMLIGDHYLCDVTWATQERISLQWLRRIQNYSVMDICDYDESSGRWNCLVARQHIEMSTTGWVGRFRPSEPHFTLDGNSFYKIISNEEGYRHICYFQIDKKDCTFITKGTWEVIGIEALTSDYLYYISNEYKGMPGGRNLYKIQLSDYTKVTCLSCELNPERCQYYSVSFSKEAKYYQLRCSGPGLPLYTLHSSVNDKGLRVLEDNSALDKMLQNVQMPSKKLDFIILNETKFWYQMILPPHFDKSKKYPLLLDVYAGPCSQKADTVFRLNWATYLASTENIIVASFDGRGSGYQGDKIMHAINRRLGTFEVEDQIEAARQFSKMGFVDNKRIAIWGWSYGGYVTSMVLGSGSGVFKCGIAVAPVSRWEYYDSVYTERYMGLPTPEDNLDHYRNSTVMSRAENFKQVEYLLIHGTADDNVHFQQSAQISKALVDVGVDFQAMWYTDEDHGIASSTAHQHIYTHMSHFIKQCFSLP

Structure (SMILES)	IC50 (human FAP) [µM]	Selectivity index PREP (Human recombinant PREP)	IC50 (Human recombinant PREP) [µM]	IC50 (DPP4) [µM]	Selectivity index DPP4 (DPP4)	IC50 (human DPP8; Ala-Pro-pNA 300 μM, pH 7.4) [µM]	Selectivity index DPP8 (human DPP8)	IC50 (human DPP9) [µM]	Selectivity index DPP9 (human DPP9)	Selectivity index PREP (Human recombinant PREP; 4-methylbenzenesulfonate)	Selectivity index PREP (Human recombinant PREP; listed as UAMC-0005086, 4-methylbenzenesulfonate)	IC50 (human DPP8; heading: DPP8 IC50) [µM]
C[N+](C)(CCF)CCOCCOc1ccc2nccc(C(=O)NCC(=O)N3CC(F)(F)C[C@H]3C#N)c2c1 [Compound 8, (S)-2-(2-((4-((2-(2-cyano-4,4-difluoropyrrolidin-1-yl)-2-oxoethyl)carbamoyl)quinolin-6-yl)oxy)ethoxy)-N-(2-fluoroethyl)-N,N-dimethylethan-1-aminium 4-methylbenzenesulfonate]	0.00942 ± 0.00344	>1300	> 10	> 10	>1300	> 10	>1300	> 10	>1300			
C[N+](C)(CF)CCOCCOCCOc1ccc2nccc(C(=O)NCC(=O)N3CC(F)(F)C[C@H]3C#N)c2c1 [Compound 10, (S)-2-(2-(2-((4-((2-(2-cyano-4,4-difluoropyrrolidin-1-yl)-2-oxoethyl)carbamoyl)quinolin-6-yl)oxy)ethoxy)ethoxy)-N-(fluoromethyl)-N,N-dimethylethan-1-aminium hexafluorophosphate(V)]	0.00046 ± 4e-05	>2100	> 1	> 1	>2100	> 10	>21000	> 10	>21000			
CC(C)(C)OC(=O)N1CC[N+](C)(CCCOc2ccc3nccc(C(=O)NCC(=O)N4CC(F)(F)C[C@H]4C#N)c3c2)CC1 [Compound 11, (S)-4-(tert-butoxycarbonyl)-1-(3-((4-((2-(2-cyano-4,4-difluoropyrrolidin-1-yl)-2-oxoethyl)carbamoyl)quinolin-6-yl)oxy)propyl)-1-methylpiperazin-1-ium iodide]	0.00044 ± 5e-05	>22000	> 10	> 10	>22000	> 1	>2200	0.62 ± 0.08	>2200			
N#C[C@@H]1CC(F)(F)CN1C(=O)CNC(=O)c1ccnc2ccccc12 [UAMC1110, reference compound]												> 10

The remaining lines, values ahead:

IC50 (human FAP) [µM]	Selectivity index PREP (Human recombinant PREP)	IC50 (Human recombinant PREP) [µM]	IC50 (DPP4) [µM]	Selectivity index DPP4 (DPP4)	IC50 (human DPP8; Ala-Pro-pNA 300 μM, pH 7.4) [µM]	Selectivity index DPP8 (human DPP8)	IC50 (human DPP9) [µM]	Selectivity index DPP9 (human DPP9)	Selectivity index PREP (Human recombinant PREP; 4-methylbenzenesulfonate)	Selectivity index PREP (Human recombinant PREP; listed as UAMC-0005086, 4-methylbenzenesulfonate)	IC50 (human DPP8; heading: DPP8 IC50) [µM]	Structure (SMILES)
0.00032 ± 2e-05	>31000	> 10	> 10	>31000	> 10	>31000	> 10	>31000				C[N+](C)(CF)CCCOc1ccc2nccc(C(=O)NCC(=O)N3CC(F)(F)C[C@H]3C#N)c2c1.Cc1ccc(S(=O)(=O)[O-])cc1 [Compound 4a, (S)-3-((4-((2-(2-cyano-4,4-difluoropyrrolidin-1-yl)-2-oxoethyl)carbamoyl)quinoline-6-yl)oxy)-N-(fluoromethyl)-N,N-dimethylpropan-1-aminium benzenesulfonate]
0.00253 ± 0.00013		> 10	> 10	>4800	> 10	>4800	> 10	>4800	4853	>4800		C[N+](C)(CF)CCOc1ccc2nccc(C(=O)NCC(=O)N3CC(F)(F)C[C@H]3C#N)c2c1.Cc1ccc(S(=O)(=O)[O-])cc1 [Compound 4b, (S)-2-((4-((2-(2-cyano-4,4-difluoropyrrolidin-1-yl)-2-oxoethyl)carbamoyl)quinoline-6-yl)oxy)-N-(fluoromethyl)-N,N-dimethylethan-1-aminium 4-methylbenzenesulfonate]
0.00027 ± 2e-05	>36000	> 10	> 10	>36000	> 10	>36000	> 10	>36000				C[N+](C)(C)CCOCCOCCOc1ccc2nccc(C(=O)NCC(=O)N3CC(F)(F)C[C@H]3C#N)c2c1.Cc1ccc(S(=O)(=O)[O-])cc1 [Compound 7, (S)-2-(2-(2-((4-((2-(2-cyano-4,4-difluoropyrrolidin-1-yl)-2-oxoethyl)carbamoyl)quinolin-6-yl)oxy)ethoxy)ethoxy)-N,N,N-trimethylethan-1-aminium 4-methylbenzenesulfonate]
0.00049 ± 1e-06	>10000	5.33 ± 0.71		>20000		>20000		>20000				C[N+](C)(CF)CCOCCOc1ccc2nccc(C(=O)NCC(=O)N3CC(F)(F)C[C@H]3C#N)c2c1.Cc1ccc(S(=O)(=O)[O-])cc1 [Compound 9, (S)-2-(2-((4-((2-(2-cyano-4,4-difluoropyrrolidin-1-yl)-2-oxoethyl)carbamoyl)quinolin-6-yl)oxy)ethoxy)-N-(fluoromethyl)-N,N-dimethylethan-1-aminium 4-methylbenzenesulfonate]
